According to PMC10387993, “New pyrimidine-N-β-D-glucosides: synthesis, biological evaluation, and molecular docking investigations” (Turkish Journal of Chemistry, 2023):
In brackets after ≈: the same amount, converted by molar mass. Like-named read-outs stand apart in the source and are kept apart here.

Key:
Assay type in all cases: cell-based
[1] = LDH cytotoxic activity assay, HeLa; settings: human, HeLa cells
Method in brief: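 LDH release, A492–630 nm; ~5 × 10^3 cells/well, triplicate; cpd 25/50/75/100 μg/mL, 24 h, 37 °C, 5% CO2; DMEM or RPMI 1640 + 10% FBS.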

S. aureus ATCC 25923 = experiment: Microdilution MIC assay; settings: Staphylococcus aureus, ATCC25923, 24 h, S. aureus ATCC 25923, 24 h at 35 °C; read-out: MIC
Experimental: (§1) MIC values of the compounds against bacterial strains were determined on the basis of a microwell dilution method. […] […]. Growth of microorganisms was determined visually after incubation for 24 h at 35 °C. The lowest concentration at which there was no visible growth (turbidity) was taken as the MIC.

[2] = system: A. actinomycetemcomitans ATCC 33384; experiment: Microdilution MIC assay; settings: Aggregatibacter actinomycetemcomitans, ATCC33384; A. actinomycetemcomitans ATCC 33384, 24 h at 35 °C
Experimental: as §1

E. coli ATCC 25922 = experiment: Microdilution MIC assay; settings: Escherichia coli, ATCC25922; E. coli ATCC 25922, 24 h at 35 °C
Experimental: as §1

S. gordonii NCTC 7870 = experiment: Microdilution MIC assay; settings: Streptococcus gordonii, NCTC7870; S. gordonii NCTC 7870, 24 h at 35 °C
Experimental: as §1

E. faecalis ATCC 29212 = experiment: Microdilution MIC assay; settings: Enterococcus faecalis, ATCC29212, 24 h, E. faecalis ATCC 29212, 24 h at 35 °C; read-out: MIC
Experimental: as §1

[3] = system: S. aureus MRSA ATCC 46300; experiment: Microdilution MIC assay; settings: Staphylococcus aureus; S. aureus MRSA ATCC 46300, 24 h at 35 °C; read-out: MIC
Experimental: as §1

[4] = system: P. aeruginosa AGME ATCC 27853; experiment: Microdilution MIC assay; settings: Pseudomonas aeruginosa, ATCC27853; P. aeruginosa AGME ATCC 27853, 24 h at 35 °C
Experimental: as §1

[5] = system: E. faecalis VRE ATCC 19433; experiment: Microdilution MIC assay; settings: Enterococcus faecalis; E. faecalis VRE ATCC 19433, 24 h at 35 °C
Experimental: as §1

E. coli ESBL ATCC 35218 = experiment: Microdilution MIC assay; settings: Escherichia coli, ATCC35218; E. coli ESBL ATCC 35218, 24 h at 35 °C
Experimental: as §1

S. mutans ATCC 35668 = experiment: Microdilution MIC assay; settings: S. mutans ATCC 35668, 24 h at 35 °C
Experimental: as §1

HT29 = experiment: cells; settings: Homo sapiens; for LC50 (concentration giving 50% net cell loss relative to time zero): HT-29, read-out: LC50; for GI50 / IC50 / IC (total growth inhibition): HT-29, HT29, MTT; for IC50: read-out: IC50; for IC (total growth inhibition): read-out: TGI
Method in brief: (§2)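 Proliferation was measured with the MTT method on cells grown in serum-supplemented DMEM or RPMI 1640 and seeded near 1 × 10^4 per well. Growth parameters GI50, TGI and LC50 were computed from absorbances at time zero, in control growth and under drug.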

HeLa = experiment: cells; settings: Homo sapiens; for GI50 / IC50 / IC (total growth inhibition): MTT; for IC50: read-out: IC50; for IC (total growth inhibition): read-out: TGI; for LC50 (concentration causing 50% net cell loss): read-out: LC50
Method in brief: as §2

MCF7 = experiment: cells; settings: Homo sapiens; for LC50 (concentration causing 50% net cell loss relative to time zero): MCF7, read-out: LC50; for GI50 / IC50 / IC (total growth inhibition): MCF7, MTT; for IC50: read-out: IC50; for IC (total growth inhibition): read-out: TGI
Method in brief: as §2

C6 (Rat brain glioma) = experiment: cells; settings: Rattus norvegicus; for LC50 (concentration giving 50% net cell loss relative to time zero): read-out: LC50; for GI50 / IC50 / IC (total growth inhibition): C6, MTT; for IC50: read-out: IC50; for IC (total growth inhibition): read-out: TGI
Method in brief: as §2

Hep3B = experiment: cells; settings: Homo sapiens; for GI50 / IC50 / IC (total growth inhibition): MTT; for IC50: read-out: IC50; for IC (total growth inhibition): read-out: TGI; for LC50 (concentration causing 50% net cell loss relative to time zero): read-out: LC50
Method in brief: as §2

A549 = experiment: cells; settings: Homo sapiens; for LC50 (concentration causing 50% net cell loss): A549, read-out: LC50; for GI50 / IC50 / IC (total growth inhibition): A549, MTT; for IC50: read-out: IC50; for IC (total growth inhibition): read-out: TGI
Method in brief: as §2

[6] = Streptococcus mutans, ATCC35668, 24 h, read-out: MIC

Compound | cytotoxicity at 24 h, 25 μg/mL [1] [%] | cytotoxicity at 24 h, 50 μg/mL [1] [%] | cytotoxicity at 24 h, 75 μg/mL [1] [%] | cytotoxicity at 24 h, 100 μg/mL [1] [%] | MIC [2] [µg/mL] | MIC (E. coli ATCC 25922) [µg/mL] | MIC (S. gordonii NCTC 7870) [µg/mL] | MIC (E. faecalis ATCC 29212) [µg/mL] | MIC [3] [µg/mL] | MIC [4] [µg/mL] | MIC [5] [µg/mL] | MIC (E. coli ESBL ATCC 35218) [µg/mL] | MIC (S. mutans ATCC 35668; [6]) [µg/mL] | LC50 (concentration giving 50% net cell loss relative to time zero) (HT29) [µg/mL] | GI50 (HT29) [µg/mL] | IC50 (HT29) [µg/mL] | IC (total growth inhibition) (HT29) [µg/mL] | GI50 (HeLa) [µg/mL] | IC50 (HeLa) [µg/mL] | IC (total growth inhibition) (HeLa) [µg/mL] | further results
Cc1ccccc1-c1cc(-c2ccccn2)nc(N[C@@H]2O[C@H](CO)[C@@H](O)[C@H](O)[C@H]2O)n1 [Compound 1, N-[4-(2-methylphenyl)-6-pyridin-2-ylpyrimidin-2-yl]-β-D-glucopyranosylamine] | 30.2 | 47 | 65.3 | 88.7 | 500 (≈ 1180 µM) | > 1000 | 250 (≈ 589 µM) | 1000 (≈ 2360 µM) | 1000 (≈ 2360 µM) | > 1000 | > 1000 | > 1000 | 62.5 to 125 (≈ 147 to 294 µM) | > 500 | 3.41 (≈ 8.03 µM) | 198 (≈ 466 µM) | > 500 | 10.5 (≈ 24.8 µM) | 54.4 (≈ 128 µM) | 35.1 | MIC (S. aureus ATCC 25923): 500 µg/mL (≈ 1180 µM); MIC (S. mutans ATCC 35668): 62.5 µg/mL (≈ 147 µM); LC50 (concentration causing 50% net cell loss) (HeLa): 218 µg/mL (≈ 514 µM); LC50 (concentration causing 50% net cell loss relative to time zero) (MCF7): > 500 µg/mL; GI50 (MCF7): 1.81 µg/mL (≈ 4.26 µM); IC50 (MCF7): > 500 µg/mL; IC (total growth inhibition) (MCF7): > 500 µg/mL; LC50 (concentration giving 50% net cell loss relative to time zero) (C6 (Rat brain glioma)): 245 µg/mL (≈ 578 µM); GI50 (C6 (Rat brain glioma)): 6.34 µg/mL (≈ 14.9 µM); IC50 (C6 (Rat brain glioma)): 41.2 µg/mL (≈ 97.1 µM); IC (total growth inhibition) (C6 (Rat brain glioma)): 24.3 µg/mL; GI50 (Hep3B): 5.38 µg/mL (≈ 12.7 µM); IC50 (Hep3B): > 500 µg/mL; IC (total growth inhibition) (Hep3B): > 500 µg/mL; LC50 (concentration causing 50% net cell loss relative to time zero) (Hep3B): > 500 µg/mL; LC50 (concentration causing 50% net cell loss) (A549): > 500 µg/mL; GI50 (A549): 67.8 µg/mL (≈ 160 µM); IC50 (A549): > 500 µg/mL; IC (total growth inhibition) (A549): > 500 µg/mL
Cc1cccc(-c2cc(-c3cccnc3)nc(N[C@@H]3O[C@H](CO)[C@@H](O)[C@H](O)[C@H]3O)n2)c1 [Compound 5, N-[4-(3-methylphenyl)-6-pyridin-3-ylpyrimidin-2-yl]-β-D-glucopyranosylamine] | 19.8 | 35.3 | 40.3 | 54.3 | 250 (≈ 589 µM) | > 1000 | 125 (≈ 294 µM) | > 1000 | 250 (≈ 589 µM) | > 1000 | > 1000 | > 1000 | 500 (≈ 1180 µM) | > 500 | 4.12 (≈ 9.71 µM) | 72.6 (≈ 171 µM) | 126 | > 500 | > 500 | > 500 | LC50 (concentration causing 50% net cell loss) (HeLa): > 500 µg/mL; LC50 (concentration causing 50% net cell loss relative to time zero) (MCF7): > 500 µg/mL; GI50 (MCF7): 2.53 µg/mL (≈ 5.96 µM); IC50 (MCF7): 66.8 µg/mL (≈ 157 µM); IC (total growth inhibition) (MCF7): 75.7 µg/mL; LC50 (concentration giving 50% net cell loss relative to time zero) (C6 (Rat brain glioma)): 249 µg/mL (≈ 587 µM); GI50 (C6 (Rat brain glioma)): 4.56 µg/mL (≈ 10.7 µM); IC50 (C6 (Rat brain glioma)): 33.5 µg/mL (≈ 78.9 µM); IC (total growth inhibition) (C6 (Rat brain glioma)): 18.1 µg/mL; GI50 (Hep3B): 3.61 µg/mL (≈ 8.5 µM); IC50 (Hep3B): 20.1 µg/mL (≈ 47.4 µM); IC (total growth inhibition) (Hep3B): 20.5 µg/mL; LC50 (concentration causing 50% net cell loss relative to time zero) (Hep3B): > 500 µg/mL; LC50 (concentration causing 50% net cell loss) (A549): > 500 µg/mL; GI50 (A549): 23.7 µg/mL (≈ 55.8 µM); IC50 (A549): > 500 µg/mL; IC (total growth inhibition) (A549): > 500 µg/mL
Cc1ccccc1-c1cc(-c2cccnc2)nc(N[C@@H]2O[C@H](CO)[C@@H](O)[C@H](O)[C@H]2O)n1 [Compound 2, N-[4-(2-methylphenyl)-6-pyridin-3-ylpyrimidin-2-yl]-β-D-glucopyranosylamine] | 30.5 | 47.2 | 49.7 | 72.1 | 250 (≈ 589 µM) | > 1000 | 500 (≈ 1180 µM) | > 1000 | 125 (≈ 294 µM) | > 1000 | > 1000 | > 1000 | 1000 (≈ 2360 µM) | > 500 | 2.46 (≈ 5.8 µM) | 453 (≈ 1070 µM) | > 500 | > 500 | > 500 | > 500 | LC50 (concentration causing 50% net cell loss) (HeLa): > 500 µg/mL; LC50 (concentration causing 50% net cell loss relative to time zero) (MCF7): > 500 µg/mL; GI50 (MCF7): 1.69 µg/mL (≈ 3.98 µM); IC50 (MCF7): > 500 µg/mL; IC (total growth inhibition) (MCF7): > 500 µg/mL; LC50 (concentration giving 50% net cell loss relative to time zero) (C6 (Rat brain glioma)): 217 µg/mL (≈ 510 µM); GI50 (C6 (Rat brain glioma)): 9.17 µg/mL (≈ 21.6 µM); IC50 (C6 (Rat brain glioma)): 49.7 µg/mL (≈ 117 µM); IC (total growth inhibition) (C6 (Rat brain glioma)): 31.6 µg/mL; GI50 (Hep3B): 3.85 µg/mL (≈ 9.07 µM); IC50 (Hep3B): > 500 µg/mL; IC (total growth inhibition) (Hep3B): > 500 µg/mL; LC50 (concentration causing 50% net cell loss relative to time zero) (Hep3B): > 500 µg/mL; LC50 (concentration causing 50% net cell loss) (A549): > 500 µg/mL; GI50 (A549): 11.6 µg/mL (≈ 27.3 µM); IC50 (A549): > 500 µg/mL; IC (total growth inhibition) (A549): > 500 µg/mL
